# Reference: publication PMC8596534, “Pyridine substituted BODIPYs: synthesis, characterization and cholinesterease, α-glucosidase inhibitory, DNA hydrolytic cleavage effects” (Turkish Journal of Chemistry, 2021)
# Legend:
# [1] = molecular target: α-glucosidase from Saccharomyces cerevisiae; test: α-Glucosidase inhibition; assay type: biochemical
# Source text: (§1) The materials, equipment, AChE, BuChE, α-glucosidase inhibitory, and DNA hydrolytic cleavage actions are given as supplementary information.
# The inhibitory properties of the compounds on α-glucosidase were investigated according to our previously reported methods. The results were expressed as IC50 values.
# [2] = molecular target: acetylcholinesterase from Electrophorus electricus (AChE) (Electrophorus electricus, UniProt O42275); test: biochemical; conditions: for SI (BuChE/AChE): selective index = IC50 BuChE/AChE
# Source text: as §1
# (§2) The results were expressed as IC50 and selective index (SI=BuChE/AChE) values.
# [3] = molecular target: T1, butyrylcholinesterase from equine serum (BuChE) (Equus caballus, UniProt P81908); test: BuChE inhibition; assay type: biochemical
# T1 construct: butyrylcholinesterase from equine serum (BuChE); from tissue; host or cells: equine serum
# Source text: as §1, §2
# AChE [4] = molecular target: T2, AChE (Electrophorus electricus, UniProt O42275); test: Compound-protein binding by UV-Vis spectroscopy; conditions: AChE 10 µM; BDPY-4 5, 10, 15 and 20 µM
# Procedure: To determine the structural change of AChE (10 µM) induced by BDPY-4, we measured the UV-Vis spectroscopy by adding the compound (5, 10, 15, and 20 µM) into AChE solution (10 µM). AChE has an absorption peak at 282 nm due to aromatic amino acids.
# AChE [5] = molecular target: T2, AChE; test: AChE inhibition mechanism (Lineweaver–Burk and Dixon plots); assay type: biochemical; conditions: for Vmax: substrate acetylthiocholine iodide
# Source text: Acetylthiocholine iodide was used as a substrate for AChE inhibition.
# T1 sequence (P81908 whole entry): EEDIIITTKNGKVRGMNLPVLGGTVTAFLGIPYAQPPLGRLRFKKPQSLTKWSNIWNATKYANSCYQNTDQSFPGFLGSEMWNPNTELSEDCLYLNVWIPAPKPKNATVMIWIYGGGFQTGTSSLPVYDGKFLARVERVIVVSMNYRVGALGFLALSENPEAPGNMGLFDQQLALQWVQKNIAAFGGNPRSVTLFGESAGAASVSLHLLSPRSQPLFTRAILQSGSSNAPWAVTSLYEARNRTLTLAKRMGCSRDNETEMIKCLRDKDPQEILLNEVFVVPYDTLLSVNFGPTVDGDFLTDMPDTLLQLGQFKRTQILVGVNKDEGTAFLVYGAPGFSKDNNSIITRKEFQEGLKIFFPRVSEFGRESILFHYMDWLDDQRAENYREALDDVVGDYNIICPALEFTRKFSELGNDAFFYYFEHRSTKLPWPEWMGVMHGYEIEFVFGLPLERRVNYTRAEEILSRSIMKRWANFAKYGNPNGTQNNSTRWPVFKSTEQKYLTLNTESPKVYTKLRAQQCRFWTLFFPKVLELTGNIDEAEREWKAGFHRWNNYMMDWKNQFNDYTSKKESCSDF
# T2 sequence (O42275 24-633): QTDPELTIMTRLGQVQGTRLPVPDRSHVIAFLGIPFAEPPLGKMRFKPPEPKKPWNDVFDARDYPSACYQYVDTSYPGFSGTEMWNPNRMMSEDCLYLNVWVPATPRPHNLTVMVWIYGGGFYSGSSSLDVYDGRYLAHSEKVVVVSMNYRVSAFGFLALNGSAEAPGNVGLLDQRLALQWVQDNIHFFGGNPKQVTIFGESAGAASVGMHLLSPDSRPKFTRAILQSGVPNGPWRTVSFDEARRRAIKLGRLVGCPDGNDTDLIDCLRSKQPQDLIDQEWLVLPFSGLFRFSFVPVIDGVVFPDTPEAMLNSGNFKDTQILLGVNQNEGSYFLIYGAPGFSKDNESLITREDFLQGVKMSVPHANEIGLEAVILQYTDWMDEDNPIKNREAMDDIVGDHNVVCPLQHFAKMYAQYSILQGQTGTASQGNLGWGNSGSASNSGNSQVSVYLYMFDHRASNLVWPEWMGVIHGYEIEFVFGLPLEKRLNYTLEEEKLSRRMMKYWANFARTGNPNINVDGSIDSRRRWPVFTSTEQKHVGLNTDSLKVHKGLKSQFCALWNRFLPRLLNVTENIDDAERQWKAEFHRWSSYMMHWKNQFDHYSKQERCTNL
# acetylcholinesterase from Electrophorus electricus (AChE), sequence (O42275 24-633): as above
Structure (SMILES),IC50 [1] [µM],IC50 [2] [µM],SI (BuChE/AChE) [2],IC50 [3] [µM],Change of AChE absorbance (AChE [4]),Shift of AChE absorption peak (AChE [4]),Vmax (AChE [5]; 50 µM BDPY-4) [µM/min],Vmax (AChE [5]; 100 µM BDPY-4) [µM/min],"Ki (AChE [5]; Dixon plot, read-out: Ki (inhibition constant)) [µM]",Inhibitory type (AChE [5]; Lineweaver–Burk plot)
CC1=CC(C)=[N+]2C1=C(c1ccc(OCCCc3ccncc3)cc1)c1c(C)cc(C)n1[B-]2(F)F [BDPY-2],219 ± 8.71,72.5 ± 2.95,2.55,185 ± 5.49,,,,,,
CC1=CC(/C=C/c2ccc(OCCCc3ccncc3)cc2)=[N+]2C1=C(c1ccc(OCCCc3ccncc3)cc1)c1c(C)cc(/C=C/c3ccc(OCCCc4ccncc4)cc3)n1[B-]2(F)F [BDPY-4],95 ± 4.77,54.8 ± 4.51,2.74,150 ± 6.09,hyperchromism,shifted from 282 nm to 285 nm,196.08,126.58,57.2 ± 0.2,noncompetitive inhibitor
CC1=CC(/C=C/c2ccc(OCCCc3cccnc3)cc2)=[N+]2C1=C(c1ccc(OCCCc3ccncc3)cc1)c1c(C)cc(/C=C/c3ccc(OCCCc4cccnc4)cc3)n1[B-]2(F)F [BDPY-5],106 ± 5.03,64.9 ± 3.89,2.62,170 ± 4.33,,,,,,
